Measurements: patent US6458796B1, “Dihydro-[1,2,3]triazolo-[4,5-d]pyrimidin-7-one” (Bayer Aktiengesellschaft, priority 1998, dated 2002)

How the values were obtained:
[1] = system: T1, Ca2+-calmodulin-stimulated PDE I; test: Inhibition of the phosphodiesterases in vitro: PDE I; type: biochemical, porcine or bovine (preferably bovine aorta); conditions: 1 μM CaCl2 and 0.1 μM calmodulin added; substrate 10^-6 mol/l
T1 construct: The Ca^2+-calmodulin-stimulated PDE I was isolated from porcine aorta, porcine brain or, preferably, from bovine aorta
Method: (§1) The c-GMP-stimulated PDE II, the c-GMP-inhibited PDE III and the cAMP-specific PDE IV were isolated either from porcine or bovine heart myocardium. The Ca^2+-calmodulin-stimulated PDE I was isolated from porcine aorta, porcine brain or, preferably, from bovine aorta. The c-GMP-specific PDE V was obtained from porcine small intestine, porcine aorta, human platelets and, preferably, from bovine aorta. Purification was carried out by anion exchange chromatography over MonoQ^R Pharmacia, essentially following the method of M. Hoey and Miles D. Houslay, Biochemical Pharmacology, Vol. 40, 193-202 (1990) and C. Lugman et al. Biochemical Pharmacology Vol. 35 1743-1751 (1986).
(§2) The enzyme activity is determined using a test mixture of 100 μl in 20 mM Tris/HCl buffer pH 7.5 containing 5 mM MgCl2, 0.1 mg/ml of bovine serum albumin and either 800 Bq ^3HcAMP or ^3HcGMP. The final concentration of the nucleotides in question is 10^−6 mol/l. The reaction is initiated by addition of the enzyme and the amount of enzyme is such that during the incubation time of 30 min, approximately 50% of the substrate is converted. To test the cGMP-stimulated PDE II, ^3HcAMP is used as substrate and 10^−6 mol/l of non-labelled cGMP are added to the mixture. To test the Ca-calmodulin-dependent PDE I, 1 μM of CaCl2 and 0.1 μM of calmodulin are added to the reaction mixture. The reaction is quenched by addition of 100 μL of acetonitrile, containing 1 mM cAMP and 1 mM AMP. 100 μl of the reaction mixture are separated by HPLC and the cleavage products are determined quantitatively on-line using a continuous scintillation counter. The substance concentration measured is the concentration at which the reaction rate is reduced by 50%. Additionally, the “phodiesterase [^3H] cAMP-SPA enzyme assay” and the “phosphodiesterase [^3H] cGMP-SPA enzyme assay” from Amersham Life Science were used for testing. The test was carried out according to the test protocol of the manufacturer. To determine the activity of PDE2, the [^3H] cAMP-SPA assay was used, and 10^−6 M cGMP were added to the reaction mixture to activate the enzyme. To measure PDE1, 10^−7 M calmodulin and 1 μM CaCl2 were added to the reaction mixture. PDE5 was measured using the [^3H] cGMP-SPA assay.

c-GMP-stimulated PDE II = target: T2, c-GMP-stimulated PDE II (UniProt P14099); test: Inhibition of the phosphodiesterases in vitro: PDE II; type: biochemical, porcine or bovine (heart myocardium); conditions: 3HcAMP substrate, 10^-6 mol/l cGMP added
T2 sequence (P14099 1-921): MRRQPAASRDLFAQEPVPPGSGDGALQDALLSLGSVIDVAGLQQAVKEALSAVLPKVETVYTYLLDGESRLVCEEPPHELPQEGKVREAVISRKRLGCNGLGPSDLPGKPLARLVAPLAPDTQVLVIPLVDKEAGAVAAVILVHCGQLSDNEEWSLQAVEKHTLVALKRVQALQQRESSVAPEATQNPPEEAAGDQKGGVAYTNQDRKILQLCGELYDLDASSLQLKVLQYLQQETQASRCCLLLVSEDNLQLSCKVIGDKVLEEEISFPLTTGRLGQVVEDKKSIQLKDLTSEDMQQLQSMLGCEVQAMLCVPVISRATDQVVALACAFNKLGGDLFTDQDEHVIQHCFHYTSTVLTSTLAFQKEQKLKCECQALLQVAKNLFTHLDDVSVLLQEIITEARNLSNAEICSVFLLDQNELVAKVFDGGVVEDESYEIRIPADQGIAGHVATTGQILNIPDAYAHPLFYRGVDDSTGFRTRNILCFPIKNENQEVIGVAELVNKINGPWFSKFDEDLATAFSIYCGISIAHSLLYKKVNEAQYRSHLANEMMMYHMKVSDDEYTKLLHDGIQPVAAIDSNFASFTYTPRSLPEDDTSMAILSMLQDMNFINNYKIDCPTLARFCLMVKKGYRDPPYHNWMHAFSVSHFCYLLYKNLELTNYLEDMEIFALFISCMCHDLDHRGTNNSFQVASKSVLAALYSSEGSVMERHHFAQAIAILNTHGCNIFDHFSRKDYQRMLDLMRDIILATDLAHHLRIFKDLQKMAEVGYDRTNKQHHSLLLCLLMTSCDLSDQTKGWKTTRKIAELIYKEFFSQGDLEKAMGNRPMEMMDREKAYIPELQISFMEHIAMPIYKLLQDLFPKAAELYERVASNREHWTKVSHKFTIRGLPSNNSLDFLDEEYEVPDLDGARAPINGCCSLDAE
Method: as §1, §2

c-GMP-specific PDE V = target: T3, c-GMP-specific PDE V (Bos taurus, UniProt Q28156); test: Inhibition of the phosphodiesterases in vitro: PDE V; type: biochemical, porcine, human platelets or, preferably, bovine aorta; conditions: 3HcGMP substrate 10^-6 mol/l
T3 construct: porcine aorta, human platelets and, preferably, from bovine aorta; from tissue; host or cells: porcine small intestine, porcine aorta, human platelets or, preferably, bovine aorta
Method: as §1, §2

| SMILES | melting point | IC50 [1] | IC50 (c-GMP-stimulated PDE II) | IC50 (c-GMP-specific PDE V) |
| --- | --- | --- | --- | --- |
| CC(CCCc1ccccc1)n1nnc2c(=O)[nH]c(Cc3ccccc3)nc21 (stereo not shown) [Example 4, 5-Benzyl-3-(1-methyl-4-phenyl-butyl)-3,6-dihydro-[1,2,3]triazolo[4,5-d]pyrimidin-7-one] | 112 °C |  |  |  |
| COc1ccc(Cc2nc3c(nnn3C(C)CCCc3ccccc3)c(=O)[nH]2)cc1OC (stereo not shown) [Example 5, 5-(3,4-Dimethoxy-benzyl)-3-(1-methyl-4-phenyl-butyl)-3,6-dihydro-[1,2,3]triazolo-[4,5-d]pyrimidin-7-one] |  | 500 nM | 80 nM | 500 nM |
| CNS(=O)(=O)c1ccc(Cc2nc3c(nnn3C(C)CCCc3ccccc3)c(=O)[nH]2)cc1 (stereo not shown) [Example 19, N-Methyl-4-[3-(1-methyl-4-phenyl-butyl)-7-oxo-6,7-dihydro-3H-[1,2,3]-triazolo-[4,5-d]pyrimidin-5-ylmethyl]-benzenesulphonamide] |  | 200 nM | 200 nM | > 1000 nM |

More lines, now with the values ahead:

| melting point | IC50 [1] | IC50 (c-GMP-stimulated PDE II) | IC50 (c-GMP-specific PDE V) | SMILES |
| --- | --- | --- | --- | --- |
|  | 100 nM | 100 nM | > 1000 nM | CC(CCCc1ccccc1)n1nnc2c(=O)[nH]c(Cc3ccc(S(=O)(=O)NCCO)cc3)nc21 (stereo not shown) [Example 23, N-(2-Hydroxyethyl)-4-[3-(1-methyl-4-phenyl-butyl)-7-oxo-6,7-dihydro-3H-[1,2,3]triazolo[4,5-d]pyrimidin-5-ylmethyl]benzenesulphonamide] |
|  | 500 nM | 300 nM | ≥ 1000 nM | CC(O)C(CCCc1ccccc1)n1nnc2c(=O)[nH]c(Cc3ccc4c(c3)OCO4)nc21 (stereo not shown) [Example 30, 5-Benzo[1,3]dioxol-5-ylmethyl-3-[1-(1-hydroxy-ethyl)-4-phenyl-butyl]-3,6-dihydro-[1,2,3]triazolo[4,5-d]pyrimidin-7-one] |
|  | > 1000 nM | 40 nM | > 1000 nM | COc1ccc(Cc2nc3c(nnn3C(CCCc3ccccc3)C(C)O)c(=O)[nH]2)cc1OC (stereo not shown) [Example 31, 5-(3,4-Dimethoxy-benzyl)-3-[1-(1-hydroxy-ethyl)-4-phenyl-butyl]-3,6-dihydro-[1,2,3]triazolo[4,5-d]pyrimidin-7-one] |
